Test results published in patent publication US20150368230A1, “RADIOLABELED QUINAZOLINE DERIVATIVES” (priority 2013, published 2015).

Key:
[1] = test system: H1975 xenograft; assay: Dynamic PET imaging, H1975 xenograft; assay type: in vivo, nude mice; details: H1975 (insensitive), no blocking
Protocol: (§1) Dynamic PET imaging was performed on three cancer xenograft (A549, H1975 and HCC827) lines in nude mice. Each mouse (n=3) carried one tumor of the same cancer xenograft line, which were located on the left or right flank. Imaging was performed for a duration of 120 min using a double-LSO/LYSO layer high-resolution research tomograph (HRRT; CTI/Siemens, Knoxville, Tenn., USA). The mice were anesthetized with 4% and 2% isoflurane in 1 L·min^−1 oxygen for induction and maintenance, respectively. First, for attenuation and scatter correction, a transmission scan was acquired using a 740-MBq two-dimensional (2D) fan-collimated ^137Cs (662 keV) moving point source. […] Positron emission scans were acquired in list mode and rebinned into the following frame sequence: 10×60 s, 4×300 s, and 9×600 s. After 120 min, [^18F]FDG was administered (I.V. ocular plexus) to the mice followed by scanning for another 60 min. Following corrections for decay, dead time, scatter and randoms, scans were reconstructed using an iterative 3D ordered-subsets weighted least-squares analysis (3D-OSWLS). Point source resolution varied across the field of view from approximately 2.3 to 3.2-mm full width at half maximum in the transaxial direction and from 2.5 to 3.4 mm in the axial direction. Post-filtering was not performed after reconstruction.

[2] = test system: A549, H1975 or HCC827 xenografts; assay: Biodistribution studies, statements for all investigated tumor types; assay type: in vivo, nude mice (nu/nu)
Protocol: (§2) The mice were sacrificed and dissected at 5, 30, 60 and 120 minutes post-injection. Blood, urine, skin, left tumor, right tumor, muscle, heart, lung, liver, kidney and brain were collected, weighed and counted for radioactivity in a Wallac Compugamma 1210 counter (n=3 for each time point). Biodistribution data are expressed as percentage of injected dose per gram (% ID/g) tissue for each organ (FIG. 2).

[3] = test system: A549 xenograft; assay: Dynamic PET imaging, A549 xenograft; assay type: in vivo, nude mice; details: A549 (insensitive), no blocking
Protocol: as §1

[4] = test system: P-gp; assay: PET imaging with P-gp blocking by tariquidar
[5] = PET imaging with cold afatinib added to the tracer injection; assay type: in vivo, mice; details: cold dose of 100 ng afatinib added
Excerpt: Showing that imaging of the tumor should be done at high specific activity.

[6] = test system: H1975 xenograft; assay: Biodistribution studies, H1975 tumor bearing mice; assay type: in vivo, nude mice (nu/nu); details: 5 minutes p.i.
Protocol: as §2

[7] = test system: HCC827 xenograft; assay: Biodistribution studies, HCC827 tumor bearing mice; assay type: in vivo, nude mice (nu/nu); details: 5 minutes p.i.
Protocol: as §2

[8] = Metabolite analysis in plasma after injection of tracer; assay type: in vivo, Balb/C mice; details: for Parent (%): plasma
Protocol: The mice were sacrificed at 15 (n=4) and 45 (n=4) min post-injection. At these time points, about 1.5 mL of blood was collected via a heart puncture. […] The cartridge was washed with 5 mL of H2O to collect polar radioactive metabolites. Thereafter, the tC2 Sep-Pak cartridge was eluted with 2 mL of MeOH and 1 mL of H2O to collect the mixture of apolar metabolites. […] HPLC was performed on a Dionex Ultimate 3000 system, equipped with a 1 mL loop. As a stationary phase a Phenomenex Gemini C18, 250×10 mm, 5 μm was used.

[9] = test system: A549 xenograft; assay: Biodistribution studies, A549 tumor bearing mice; assay type: in vivo, nude mice (nu/nu); details: 5 minutes p.i.
Protocol: as §2

CN(C)C/C=C/C(=O)Nc1cc2c(Nc3ccc([18F])c(Cl)c3)ncnc2cc1O[C@H]1CCOC1 [[^18F]afatinib, [^18F](S,E)-N-(4-((3-chloro-4-fluorophenyl)amino)-7-((tetrahydrofuran-3-yl)oxy)quinazolin-6-yl)-4-(dimethylamino)but-2-enamide]
uptake in tumor compared to background [1]: hardly an increase of uptake in the tumors compared to the background
uptake in the metabolic organs (kidney and liver) ([2]; mouse, in vivo): rapid and high uptake
activity remained in the tumor ([2]; tumors, 120 minutes p.i.): around 1 % ID/g
uptake in tumor compared to background [3]: hardly an increase of uptake in the tumors compared to the background
brain uptake ([4]; P-gp active (no block)): washed out from the brain
brain uptake ([4]; P-gp blocked with tariquidar): remains in the brain
P-gp substrate status ([4]; absolute tumor uptake increased when P-gp blocked): substrates
washout after P-gp blocking ([4]; tumor, tariquidar block): hardly shows any washout
tumor uptake with cold afatinib co-injected [5]: reduced to background levels
blood level of the tracer [6]: 1.59 % ID/g
blood level of the tracer [7]: 1.56 % ID/g
in vivo stability of the tracer ([8]; metabolic profile of table 1): excellent in vivo stability
Parent (%) ([8]; 15 min p.i.): 87.5 ± 0.8%
Parent (%) ([8]; 45 min p.i.): 83.3 ± 1.3%
blood level of the tracer [9]: 2.17 % ID/g
